Measured values as given in patent US20080096894A1, “Anti-Bacterial Compounds” (ASTON UNIVERSITY, priority 2005, published 2008).
≈ marks a conversion by molar mass, not a printed value. Read-outs that look alike come from different tables or passages of the source.

Legend:
S. aureus = assay: MIC, agar dilution, multipoint inoculator; format: cell-based, Staphylococcus aureus; settings: upper value of MIC reading
Protocol: (§1) This activity was measured using a multipoint inoculator method as follows. The MIC for each compound was measured using an agar dilution method (Onda, H., et al., Int. J. Antimicrob. Agents. 18, 263 (2001)) (Mueller Hinton agar) by means of a multipoint inoculator delivering 10^4 colony forming units per spot.

S. maltophilia = assay: MIC, agar dilution, multipoint inoculator; format: cell-based; settings: S. maltophilia NCTC 10257; upper value of MIC reading
Protocol: as §1

E. faecalis = assay: MIC, agar dilution, multipoint inoculator; format: cell-based; settings: upper value of MIC reading
Protocol: as §1

S. haemolyticus = assay: MIC, agar dilution, multipoint inoculator; format: cell-based; settings: S. haemolyticus Isolate 1; upper value of MIC reading
Protocol: as §1

S. epidemisis = assay: MIC, agar dilution, multipoint inoculator; format: cell-based, Staphylococcus epidermidis; settings: upper value of MIC reading
Protocol: as §1

MRSA = assay: MIC, agar dilution, multipoint inoculator; format: cell-based, methicillin-resistant Staphylococcus aureus
Protocol: as §1
‘Staph’ refers to the reference strain of S. aureus (NCTC 6571). A tick in the MRSA column refers to a positive zone against MRSA strain 96-7474, and the MIC range (in μg/ml) which follows is that found against a panel of ten MRSA strains. Where MIC values are given for MRSA, these are stated as a range of values, as testing was carried out on a panel of clinical isolates.

E. faecium = assay: MIC, agar dilution, multipoint inoculator; format: cell-based, Enterococcus faecium; settings: E. faecium NCTC 7171; upper value of MIC reading
Protocol: as §1

B. bronchiseptica = assay: MIC, agar dilution, multipoint inoculator; format: cell-based; settings: B. bronchiseptica NCTC 8344; upper value of MIC reading
Protocol: as §1

[1] = system: human mononuclear leucocytes (MNL, white blood cells); assay: direct leucocyte toxicity, tryptan blue exclusion, 18 hours; format: cell-based; settings: for % Leucocyte Death: human, 18 h, 1 mM
Protocol: The in vitro assay used human mononuclear leucocytes (MNL, white blood cells) which were incubated with the test compound for 18 hours and cell death determined by tryptan blue exclusion (tryptan blue is a dye, which stains dead cells, whilst living cells extrude it).
The toxicity of 4PYcq and the aldehyde cq and pyridine-4-carboxamidrazone precursors were assessed using the same in vitro assay with human mononuclear leucocytes as that described above. The toxicity of related compounds, 2-hydroxybenzylidene-pyridine-2-carboxamidrazone 4PYbw and benzylidenepyridine-2-carboxamidrazone 4PYaa were also examined.

S. aboni = assay: MIC, agar dilution, multipoint inoculator; format: cell-based; settings: S. aboni NCTC 6017; upper value of MIC reading
Protocol: as §1

[2] = MRSA Isolate 1, upper value of MIC reading, in µg/mL
[3] = MRSA Isolate 3, upper value of MIC reading, in µg/mL
[4] = MRSA Isolate 4, upper value of MIC reading, in µg/mL
[5] = MRSA Isolate 5, upper value of MIC reading, in µg/mL

Structure (SMILES): NC(=NN=Cc1c(O)ccc2ccccc12)c1ccncc1 [Compound 4PYdb]
- MIC (S. aureus; S. aureus Cowan 1): 128 µg/mL (≈ 441 µM)
- MIC (S. aureus; S. aureus NCTC 6571): > 256 µg/mL
- MIC (S. maltophilia): 128 µg/mL (≈ 441 µM)
- MIC (E. faecalis; E. faecalis Isolate 2): 256 µg/mL (≈ 882 µM)
- MIC (E. faecalis; E. faecalis Isolate 3): 256 µg/mL (≈ 882 µM)
- MIC (S. haemolyticus): 128 µg/mL (≈ 441 µM)
- MIC (S. epidemisis; S. epidemisis Isolate 1): 128 µg/mL (≈ 441 µM)
- MIC (S. epidemisis; S. epidemisis NCTC 11047): 128 µg/mL (≈ 441 µM)
- MIC (MRSA; [2]): 128
- MIC (MRSA; [3]): 256
- MIC (MRSA; [4]): 256

Structure (SMILES): NC(=NN=Cc1ccc(O)c(O)c1O)c1ccccn1 [Compound 2PYcb]
- MIC (S. aureus; S. aureus Cowan 1): 256 µg/mL (≈ 940 µM)
- MIC (E. faecium): 256 µg/mL (≈ 940 µM)
- MIC (B. bronchiseptica): 256 µg/mL (≈ 940 µM)
- MIC (S. epidemisis; S. epidemisis Isolate 1): 256 µg/mL (≈ 940 µM)
- MIC (MRSA; [5]): 256

Structure (SMILES): N=C(NN=Cc1ccccc1)c1ccccn1 [Compound 4PYaa, benzylidenepyridine-2-carboxamidrazone]
- direct MNL toxicity (in words) [1]: only mildly toxic in comparison

Structure (SMILES): CC(C)(C)c1ccc(C=O)cc1 [ae]
- direct MNL toxicity (in words) [1]: most toxic
- % Leucocyte Death [1]: 24.1 ± 9.6%

Structure (SMILES): N/N=C(\N)c1ccccn1 [Compound 2PY, Pyridine-2-carboxamidrazone]
- direct MNL toxicity (in words) [1]: most toxic
- % Leucocyte Death [1]: 12.1 ± 2.2%

Structure (SMILES): NC(=NN=Cc1cc([N+](=O)[O-])ccc1O)c1cccnc1 [Compound 3PYcj]
- MIC (S. aureus; S. aureus Cowan 1): 16 µg/mL (≈ 56.1 µM)
- MIC (S. aureus; S. aureus NCTC 6571): 8 µg/mL (≈ 28 µM)
- MIC (S. aureus; S. aureus NCTC 10788): 8 µg/mL (≈ 28 µM)
- MIC (E. faecalis; E. faecalis Isolate 1): 128 µg/mL (≈ 449 µM)
- MIC (E. faecalis; E. faecalis Isolate 2): 128 µg/mL (≈ 449 µM)
- MIC (E. faecalis; E. faecalis NCTC 5957): 256 µg/mL (≈ 897 µM)
- MIC (S. aboni): 256 µg/mL (≈ 897 µM)
- MIC (S. epidemisis; S. epidemisis Isolate 1): 128 µg/mL (≈ 449 µM)
- MIC (S. epidemisis; S. epidemisis NCTC 11047): 64 µg/mL (≈ 224 µM)
- MIC (MRSA; [2]): 4
- MIC (MRSA; MRSA Isolate 2, upper value of MIC reading, in µg/mL): 4
- MIC (MRSA; [3]): 4
- MIC (MRSA; [4]): 4
- MIC (MRSA; [5]): 4
- MIC (MRSA; MRSA Isolate 6, upper value of MIC reading, in µg/mL): 8
- MIC (MRSA; MRSA Isolate 7, upper value of MIC reading, in µg/mL): 8
- MIC (MRSA; MRSA Isolate 8, upper value of MIC reading, in µg/mL): 8
- MIC (MRSA; MRSA Isolate 9, upper value of MIC reading, in µg/mL): 8
- MIC (MRSA; MRSA Isolate 10, upper value of MIC reading, in µg/mL): 8
- MRSA MIC range (MRSA; panel of ten MRSA strains (clinical isolates)): 2 to 8 µg/mL

Structure (SMILES): NC(=NN=Cc1cc(O)c(O)cc1O)c1ccc2ccccc2n1 [QNcc]
- MIC (S. aureus; S. aureus Cowan 1): 256 µg/mL (≈ 794 µM)
- MIC (S. aureus; S. aureus NCTC 6571): 256 µg/mL (≈ 794 µM)
- MIC (S. aureus; S. aureus NCTC 10788): 256 µg/mL (≈ 794 µM)
- MIC (B. bronchiseptica): 256 µg/mL (≈ 794 µM)
- MIC (E. faecalis; E. faecalis Isolate 2): 256 µg/mL (≈ 794 µM)
- MIC (E. faecalis; E. faecalis Isolate 3): 256 µg/mL (≈ 794 µM)
- MIC (MRSA; [2]): 256

Structure (SMILES): CCC(C)(C)c1ccc(/C=N/N=C(\N)c2ccccn2)cc1 [Compound 2PYaf]
- MIC (MRSA; Staphylococcus aureus, MRSA, 18 h, panel of ten MRSA strains (clinical isolates), read-out: MRSA MIC range): > 256 µg/mL
- direct MNL toxicity (in words) [1]: indistinguishable from the background levels
- % Leucocyte Death [1]: 3.1 ± 1.0%
